Laboratory results reported in patent US10105357B2, “Indication of antibiotic drugs for preparation of cancer inhibition pharmaceutical composition” (LAUNX BIOMEDICAL CO., LTD., priority 2014, dated 2018).
Counter-ions that a name gives are not always drawn. Like-named read-outs stand apart in the source and are kept apart here.

Experiments:
Assay type in all cases: cell-based, human
[1] = test system: HeLa (Cervix Adenocarcinoma); assay: Cell viability analysis, cervical cancer HeLa; conditions: for viability at 10 µM: Homo sapiens, HeLa, 72 h
[2] = test system: LoVo (Colorectal Adenocarcinoma); assay: Cell viability analysis, colon cancer LoVo; conditions: for viability at 10 µM: Homo sapiens, LoVo, 72 h, read-out: cell viability (survival rate), LoVo, drug 10 μM, 72 hours, WST-1, OD450 nm
[3] = test system: A549 (Lung Adenocarcinoma); assay: Cell viability analysis, lung cancer A549; conditions: for viability at 10 µM: Homo sapiens, A549, 72 h
[4] = test system: TSGH-8301 (Urinary Bladder Carcinoma); assay: Cell viability analysis, bladder cancer TSGH-8301; conditions: for viability at 10 µM: Homo sapiens, 72 h
[5] = test system: MKN-45 (Gastric Adenocarcinoma); assay: Cell viability analysis, gastric cancer MKN-45; conditions: for viability at 10 µM: Homo sapiens, MKN-45, 72 h
[6] = test system: PC3 (p53−) (Prostate Adenocarcinoma); assay: Cell viability analysis, prostate cancer PC3; conditions: for viability at 10 µM: Homo sapiens, 72 h
[7] = test system: A375 (Amelanotic Melanoma); assay: Cell viability analysis, skin cancer A375; conditions: for viability at 10 µM: Homo sapiens, A-375, 72 h
cancer cell lines = assay: Cell viability analysis (WST-1) on cancer cell lines; conditions: drug 10 μM, 72 hours, WST-1; Table 3
[8] = test system: HL-60 (Acute Promyelocytic Leukemia); assay: Cell viability analysis, leukemia HL-60; conditions: for viability at 10 µM: Homo sapiens, HL-60, 72 h
[9] = test system: MCF7 (Mammary Gland, Adenocarcinoma); assay: Cell viability analysis, breast cancer MCF7; conditions: for viability at 10 µM: Homo sapiens, MCF7, 72 h
[10] = test system: HepG2 (Hepatocellular Carcinoma); assay: Cell viability analysis, hepatic cancer HepG2; conditions: for viability at 10 µM: Homo sapiens, HepG2, 72 h
[11] = test system: HI650 (Lung Adenocarcinoma); assay: Cell viability analysis, lung cancer HI650; conditions: for viability at 10 µM: Homo sapiens, NCI-H1650, 72 h
[12] = test system: AGS (Gastric Adenocarcinoma); assay: Cell viability analysis, gastric cancer AGS; conditions: for viability at 10 µM: Homo sapiens, 72 h
[13] = read-out: cell viability (survival rate), HeLa, drug 10 μM, 72 hours, WST-1, OD450 nm
[14] = read-out: cell viability (survival rate), A549, drug 10 μM, 72 hours, WST-1, OD450 nm
[15] = read-out: cell viability (survival rate), TSGH, drug 10 μM, 72 hours, WST-1, OD450 nm
[16] = read-out: cell viability (survival rate), MKN-45, drug 10 μM, 72 hours, WST-1, OD450 nm
[17] = read-out: cell viability (survival rate), PC3, drug 10 μM, 72 hours, WST-1, OD450 nm
[18] = read-out: cell viability (survival rate), A375, drug 10 μM, 72 hours, WST-1, OD450 nm
[19] = read-out: cell viability (survival rate), HL-60, drug 10 μM, 72 hours, WST-1, OD450 nm
[20] = read-out: cell viability (survival rate), MCF7, drug 10 μM, 72 hours, WST-1, OD450 nm
[21] = read-out: cell viability (survival rate), HepG2, drug 10 μM, 72 hours, WST-1, OD450 nm
[22] = read-out: cell viability (survival rate), H1650, drug 10 μM, 72 hours, WST-1, OD450 nm
[23] = read-out: cell viability (survival rate), AGS, drug 10 μM, 72 hours, WST-1, OD450 nm
[24] = drug 10 μM, 72 hours, WST-1, OD450 nm, read-out: cell viability (survival rate), HeLa
[25] = drug 10 μM, 72 hours, WST-1, OD450 nm, read-out: cell viability (survival rate), A549
[26] = drug 10 μM, 72 hours, WST-1, OD450 nm, read-out: cell viability (survival rate), TSGH
[27] = drug 10 μM, 72 hours, WST-1, OD450 nm, read-out: cell viability (survival rate), MKN-45
[28] = drug 10 μM, 72 hours, WST-1, OD450 nm, read-out: cell viability (survival rate), PC3
[29] = drug 10 μM, 72 hours, WST-1, OD450 nm, read-out: cell viability (survival rate), A375
[30] = drug 10 μM, 72 hours, WST-1, OD450 nm, read-out: cell viability (survival rate), HL-60
[31] = drug 10 μM, 72 hours, WST-1, OD450 nm, read-out: cell viability (survival rate), MCF7
[32] = drug 10 μM, 72 hours, WST-1, OD450 nm, read-out: cell viability (survival rate), HepG2
[33] = drug 10 μM, 72 hours, WST-1, OD450 nm, read-out: cell viability (survival rate), H1650
[34] = drug 10 μM, 72 hours, WST-1, OD450 nm, read-out: cell viability (survival rate), AGS
[35] = drug 10 μM, 72 hours, WST-1, OD450 nm

Row | Compound | viability at 10 µM [1, 13] | viability at 10 µM [2] | viability at 10 µM [3, 14] | viability at 10 µM [4, 15] | viability at 10 µM [5, 16] | viability at 10 µM [6, 17] | viability at 10 µM [7, 18] | inhibition effect on different cancer cell lines (cancer cell lines) | viability at 10 µM [8, 19] | viability at 10 µM [9, 20] | viability at 10 µM [10, 21] | viability at 10 µM [11, 22] | viability at 10 µM [12, 23] | also measured
1 | CO/N=C(\C(=O)N[C@@H]1C(=O)N2C(C(=O)O)=C(CSC(=O)c3ccco3)CS[C@H]12)c1csc(N)n1 [Ceftiofur hydrochloride] | 92.2% | 85% | 61.6% | 50.6% | 85.5% | 73.1% | 92.8% | significant inhibition effect | 92.2% | 159% | 91.9% | 44% | 69.4% | 
2 | Clc1ccc(CCC(Cn2ccnc2)Sc2c(Cl)cccc2Cl)cc1 (stereo not shown) [Butoconazole nitrate] | 131% | 112% | 89.6% | 86% | 48.7% | 57.1% | 102% | significant inhibition effect | 41.3% | 72.9% | 114% | 78.2% | 78.7% | 
3 | CC(=O)O[C@]1(C(C)=O)CC[C@H]2[C@@H]3C=C(C)C4=CC(=O)CC[C@]4(C)[C@H]3CC[C@@]21C [Megestrol Acetate] | 78.6% | 109% |  | 74.3% | 74.8% | 80.3% | 80.8% | significant inhibition effect | 94% | 110% | 88.9% | 56% | 84.7% | 
4 | CC1=C(C(=O)O)N2C(=O)[C@@H](NC(=O)[C@H](N)c3ccccc3)[C@H]2SC1 [Cephalexin (Cefalexin), Cephalexin] | 76.2% | 85.9% | 80.6% | 69.2% | 94.9% | 57.5% | 92.7% | significant inhibition effect | 95.2% | 96.1% | 109% | 71.2% | 59.6% | 
5 | COc1cc(Cc2cnc(N)nc2N)cc(OC)c1OC [Trimethoprim] | 89% | 98.7% | 125% | 92.4% | 73.6% | 151% | 83.6% | significant inhibition effect | 96.8% | 104% | 102% | 108% | 97.7% | 
6 | C[C@H](CCC(=O)O)[C@H]1CC[C@H]2[C@@H]3[C@H](O)C[C@@H]4C[C@H](O)CC[C@]4(C)[C@H]3CC[C@]12C [Chenodeoxycholic acid] |  | 82.7% |  |  |  |  |  | significant inhibition effect |  |  |  |  |  | viability at 10 µM [1, 24]: 69.1%; viability at 10 µM [3, 25]: 96.3%; viability at 10 µM [4, 26]: 88.8%; viability at 10 µM [5, 27]: 51.8%; viability at 10 µM [6, 28]: 71.4%; viability at 10 µM [7, 29]: 64.2%; viability at 10 µM [8, 30]: 118%; viability at 10 µM [9, 31]: 74.5%; viability at 10 µM [10, 32]: 94.8%; viability at 10 µM [11, 33]: 68.1%; viability at 10 µM [12, 34]: 68.9%
7 | [O-][n+]1ccccc1[S-].[O-][n+]1ccccc1[S-].[Zn+2] [Pyrithione zinc] |  |  |  |  |  |  |  | significant inhibition effect |  |  |  |  |  | cell viability (survival rate), HeLa [1]: 47.4; cell viability (survival rate), LoVo [2]: 45.5; cell viability (survival rate), A549 [3]: 29.7; cell viability (survival rate), TSGH [4]: 28.7; cell viability (survival rate), MKN-45 [5]: 57.4; cell viability (survival rate), PC3 [6]: 24.3; cell viability (survival rate), A375 [7]: 27.1; cell viability (survival rate), HL-60 [8]: 34.5; cell viability (survival rate), MCF7 [9]: 51.8; cell viability (survival rate), HepG2 [10]: 70.4; cell viability (survival rate), H1650 [11]: 60.6; cell viability (survival rate), AGS [12]: 35.4
8 | COc1ncnc(NS(=O)(=O)c2ccc(N)cc2)c1OC [Sulfadoxine (Sulphadoxine), Sulfadoxine] |  | 92.9% |  |  |  |  |  | significant inhibition effect |  |  |  |  |  | viability at 10 µM [1, 24]: 78.2%; viability at 10 µM [3, 25]: 96.6%; viability at 10 µM [4, 26]: 64.3%; viability at 10 µM [5, 27]: 87.4%; viability at 10 µM [6, 28]: 119%; viability at 10 µM [7, 29]: 65.5%; viability at 10 µM [8, 30]: 111%; viability at 10 µM [9, 31]: 132%; viability at 10 µM [10, 32]: 90.5%; viability at 10 µM [11, 33]: 62.2%; viability at 10 µM [12, 34]: 91.1%
9 | CS(=O)(=O)c1ccc([C@@H](O)[C@@H](CF)NC(=O)C(Cl)Cl)cc1 [Florfenicol] | 95.1% | 92.9% | 67.8% | 86.9% | 117% | 102% | 88.4% | significant inhibition effect | 109% | 123% | 161% | 87% |  | 
10 | Nc1nc2c(ncn2COCCO)c(=O)[nH]1 [Acyclovir (Aciclovir), Acyclovir] | 87.2% | 66.3% | 126% | 107% | 55.9% | 102% | 112% | significant inhibition effect | 91.6% | 75.8% | 104% |  | 77.1% | 
11 | Tenofovir [Tenofovir (Viread)] |  |  |  |  |  |  |  | significant inhibition effect |  |  |  |  |  | cell viability (survival rate), HeLa [1, 35]: 95.0; cell viability (survival rate), LoVo [2, 35]: 85.9; cell viability (survival rate), A549 [3, 35]: 47.7; cell viability (survival rate), MKN-45 [5, 35]: 70.9; cell viability (survival rate), PC3 [6, 35]: 68.1; cell viability (survival rate), A375 [7, 35]: 60.6; cell viability (survival rate), HL-60 [8, 35]: 97.6; cell viability (survival rate), MCF7 [9, 35]: 71.1; cell viability (survival rate), HepG2 [10, 35]: 99.0; cell viability (survival rate), H1650 [11, 35]: 55.6; cell viability (survival rate), AGS [12, 35]: 67.0
12 | CCCN1CCCC[C@H]1C(=O)Nc1c(C)cccc1C [Ropivacaine HCl] | 126% | 89.7% | 118% |  | 132% | 110% | 71.2% | significant inhibition effect | 81.3% | 99.2% | 98% | 92.4% | 64.3% | 
